Measured values taken from US7601863B2, “Use of PPAR agonists for the treatment of congestive heart failure” (sanofi-aventis Deutschland GmbH, priority 2004, dated 2009).

Key:
[1] = system: rat model of chronic coronary artery ligation (myocardial infarction, congestive heart failure); experiment: Proof of concept study: chronic heart failure after permanent left coronary artery occlusion; lung weight and isolated working heart after eight weeks of treatment; format: in vivo, Male Wistar rats; conditions: for Lung weight / Cardiac output / LV dP/dtmax / LV dP/dtmin: MI, eight weeks, mean ± sem; for Cardiac output / LV dP/dtmax / LV dP/dtmin: working heart, afterload 80 mmHg
Source text: In order to test the effect of specific activation of either PPARγ (rosiglitazone) or PPARα (compound of formula (I), (II) and (III)) on the improvement of CHF, a rat model of chronic coronary artery ligation was used because myocardial infarction is the most common cause for CHF in the industrialized countries.
Male Wistar rats were housed three per cage under standardized conditions of temperature, humidity, and light. They had free access to a standardized diet (sodium content 0.2%, Altromin, Lage, Germany) and tap drinking water. Chronic heart failure was induced by a permanent occlusion of the left coronary artery approximately 2 mm distal to its origin from the aorta resulting in a large infarction of the free left ventricular wall. Chronic treatment was initiated on the day after production of the myocardial infarction and continued for eight weeks.
The left atrium was cannulated by an incision of the left auricle. After a 15-minute equilibration period at a fixed perfusion pressure of 60 mmHg, the heart was switched into the working mode at a fixed filling pressure of 11 mm Hg. Then, afterload pressure was varied stepwise every two minutes from 40 to 140 mmHg. […] Flow and pressure signals were sampled at 500 Hz, averaged every 2 seconds. Cardiac output measures the overall capacity of the heart to pump the blood through the body. LV dP/dtmax is an index of myocardial contractility, i.e. the force generating ability of the heart; LV dP/dtmin is an index of the ability of the myocardium to relax. In addition, lung weight was measured as an index of pulmonary congestion, an indirect sign of CHF.
Treatment with a compound of the formula (I) (pressed in chow, resulting in a dose of 20 mg/kg/d) was initiated on the day after myocardial infarction. The pure PPARγ agonist rosiglitazone was used for comparison in an additional group (3 mg/kg/day in chow).

[2] = system: rats with chronic ligation of the left coronary artery (myocardial infarction, heart failure); experiment: Dose response in chronic myocardial infarction: lung weight and isolated working heart after 8 weeks of treatment; format: in vivo, Male Sprague Dawley rats; conditions: for Lung weight / Cardiac output / LV dP/dtmax / LV dP/dtmin: MI, 8 weeks, mean ± sem; for Cardiac output / LV dP/dtmax / LV dP/dtmin: working heart, afterload 80 mmHg
Experimental: At the end of the treatment period, cardiac function was measured using an isolated working heart preparation (modified Langendorff apparatus, cf. Linz et al., J. Ren. Angiotensin Aldosterone Syst., 2003): The hearts were perfused according to Langendorff's method with an oxygenated (95% O2, 5% CO2) noncirculating Krebs-Henseleit solution of the following compositions (mmol/L): NaCl, 118; KCl, 4.7; CaCl2, 2.5; MgSO4, 1.6; NaHCO3, 24.9; KH2PO4, 1.2; glucose, 5.5; Na-pyruvate, 2.0. The left atrium was cannulated by an incision of the left auricle. After a 15-minute equilibration period at a fixed perfusion pressure of 60 mmHg, the heart was switched into the working mode at a fixed filling pressure of 11 mm Hg. Then, afterload pressure was varied stepwise every two minutes from 40 to 140 mmHg. Data in the table are representative and given for a constant afterload pressure of 80 mmHg. Flow and pressure signals were sampled at 500 Hz, averaged every 2 seconds. Cardiac output measures the overall capacity of the heart to pump the blood through the body. LV dP/dtmax is an index of myocardial contractility, i.e. the force generating ability of the heart; LV dP/dtmin is an index of the ability of the myocardium to relax. In addition, lung weight was measured as an index of pulmonary congestion, an indirect sign of CHF.
Male Sprague Dawley rats were pre-treated with a chronic ligation of the left coronary artery, in order to produce a myocardial infarction (MI) and subsequent development of heart failure: Treatment with a compound of the formula (I) (pressed in chow, resulting in different daily doses) was initiated on the day after myocardial infarction. After 8 weeks of treatment, the animals were killed, the lung was weighed, and the function of the isolated heart was analyzed ex vivo in the working heart mode, in the same manner as described for Example 1 (vide supra). This method allows to assess different aspects of the myocardial function. For comparison against the effect of an established therapeutic principle in the present experimental series, the dual ACE/NEP, or vasopeptidase, inhibitor (7-(2-Acetylsulfanyl-3-methyl-butyrylamino)-6-oxo-1,2,3,4,6,7,8,12b-octahydro-benzo[c]pyrido[1,2-a]azepine-4-carboxylic acid; international patent application no. WO 02/083671) that is known for being active in the treatment of CHF was applied in an additional group.

[3] = compound (I) 20 mg/kg/d in chow
[4] = rosiglitazone 3 mg/kg/d in chow

**Q.** `Cc1cccc(COCCCOCc2coc(-c3ccccc3)n2)c1C(=O)O` [compound (I), 2-methyl-6-[3-(2-phenyloxazol-4-ylmethoxy)propoxymethyl] benzoic acid] was tested. Which “Effect of chronic treatment on heart failure (in words)” value ([1]; MI rats, eight weeks in chow, compound (I) 20 mg/kg/d, rosiglitazone 3 mg/kg/day) did it give?
**A.** improves different aspects of heart failure

**Q.** And the Lung weight [1, 3]?
**A.** 1.62 ± 0.06 Gram

**Q.** And the Cardiac output [1, 3]?
**A.** 25.8 ± 4.3 mL/min

**Q.** And the “LV dP/dtmax” value [1, 3]?
**A.** 4614 ± 253 mmHg/s

**Q.** What about the “LV dP/dtmin” value [1, 3] of the same compound?
**A.** 2502 ± 77 mmHg/s

**Q.** What about the “Effect of chronic treatment on heart failure (in words)” value ([2]; MI rats, 8 weeks in chow, different daily doses) of the same compound?
**A.** improves different aspects of heart failure

**Q.** And the Lung weight ([2]; 1 mg/kg/d in chow)?
**A.** 0.80 ± 0.08 g/100 g BW

**Q.** What about the Cardiac output ([2]; 1 mg/kg/d in chow) of the same compound?
**A.** 12.5 ± 3.3 mL/min

**Q.** And the “LV dP/dtmax” value ([2]; 1 mg/kg/d in chow)?
**A.** 3280 ± 250 Mm Hg/s

**Q.** What about the “LV dP/dtmin” value ([2]; 1 mg/kg/d in chow) of the same compound?
**A.** 1886 ± 137 mm Hg/s

**Q.** What about the Lung weight ([2]; 3 mg/kg/d in chow) of the same compound?
**A.** 0.54 ± 0.08 g/100 g BW

**Q.** And the Cardiac output ([2]; 3 mg/kg/d in chow)?
**A.** 21.5 ± 5.4 mL/min

**Q.** What about the “LV dP/dtmax” value ([2]; 3 mg/kg/d in chow) of the same compound?
**A.** 3665 ± 166 Mm Hg/s

**Q.** What about the “LV dP/dtmin” value ([2]; 3 mg/kg/d in chow) of the same compound?
**A.** 2353 ± 77 mm Hg/s

**Q.** What about the Lung weight ([2]; 10 mg/kg/d in chow) of the same compound?
**A.** 0.54 ± 0.09 g/100 g BW

**Q.** What about the Cardiac output ([2]; 10 mg/kg/d in chow) of the same compound?
**A.** 21.0 ± 4.0 mL/min

**Q.** And the “LV dP/dtmax” value ([2]; 10 mg/kg/d in chow)?
**A.** 4043 ± 256 Mm Hg/s

**Q.** And the “LV dP/dtmin” value ([2]; 10 mg/kg/d in chow)?
**A.** 2339 ± 111 mm Hg/s

**Q.** `CC(=O)SC(C(=O)NC1Cc2ccccc2C2CCCC(C(=O)O)N2C1=O)C(C)C` (centres unmarked) [VPI, 7-(2-Acetylsulfanyl-3-methyl-butyrylamino)-6-oxo-1,2,3,4,6,7,8,12b-octahydro-benzo[c]pyrido[1,2-a]azepine-4-carboxylic acid, reference compound] was tested. Which Lung weight ([2]; 30 mg/kg/d) did it give?
**A.** 0.56 ± 0.07 g/100 g BW

**Q.** What about the Cardiac output ([2]; 30 mg/kg/d) of the same compound?
**A.** 27.2 ± 3.5 mL/min

**Q.** What about the “LV dP/dtmax” value ([2]; 30 mg/kg/d) of the same compound?
**A.** 3868 ± 172 Mm Hg/s

**Q.** And the “LV dP/dtmin” value ([2]; 30 mg/kg/d)?
**A.** 2379 ± 120 mm Hg/s

**Q.** `CN(CCOc1ccc(CC2SC(=O)NC2=O)cc1)c1ccccn1` (centres unmarked) [Rosiglitazone, rosiglitazone, reference compound] was tested. Which Lung weight [1, 4] did it give?
**A.** 3.67 ± 0.38 Gram

**Q.** What about the Cardiac output [1, 4] of the same compound?
**A.** 10.2 ± 3.8 mL/min

**Q.** What about the “LV dP/dtmax” value [1, 4] of the same compound?
**A.** 3491 ± 147 mmHg/s

**Q.** And the “LV dP/dtmin” value [1, 4]?
**A.** 2081 ± 65 mmHg/s
